This passage reports IC50 results from US20250179017A1 (GUANGDONG NEWOPP BIOPHARMACEUTICALS CO., LTD., priority 2022, published 2025).

The term IC50 denotes the concentration needed to halve the response being measured. Higher therefore signals lower potency.

For this experiment, the target named is T1, human EP2 (PTGER2) (Homo sapiens, UniProt P43116).
T1 construct: Cayman Chemical (Human EP2 Reporter Assay Kit)
T1 sequence (P43116 whole entry): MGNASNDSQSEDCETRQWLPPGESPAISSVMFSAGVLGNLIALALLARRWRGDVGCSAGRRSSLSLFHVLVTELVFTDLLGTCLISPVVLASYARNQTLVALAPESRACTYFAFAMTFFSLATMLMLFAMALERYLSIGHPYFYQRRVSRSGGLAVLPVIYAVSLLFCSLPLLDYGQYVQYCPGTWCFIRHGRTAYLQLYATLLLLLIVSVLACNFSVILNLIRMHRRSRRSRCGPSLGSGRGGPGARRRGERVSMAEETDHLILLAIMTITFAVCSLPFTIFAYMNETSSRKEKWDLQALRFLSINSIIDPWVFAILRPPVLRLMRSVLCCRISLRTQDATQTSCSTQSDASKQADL
Kind of experiment: EP2 antagonist assay (HEK-293 CNG membrane potential cAMP assay / 293T SEAP reporter assay, PGE2-stimulated). To be noted: EP2 antagonist activity; concentration for 50% inhibition of signal compared to DMSO. Format: cell-based. An outline of the steps:
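Two formats. In a CRE-SEAP reporter assay, reverse-transfected 293T cells received compound with PGE2 (13 nM final) for 6-8 h, then luminescence was read. In the ACTOne CNG format, HEK-293 cells were preincubated with compound for 15 min at RT, stimulated with 5 nM PGE2 for 30 min, and read by membrane-potential dye fluorescence. IC50 was taken versus DMSO.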
In general terms: Changes in cAMP serve as a functional read-out for many G protein-coupled receptors.
Compound `COc1cccc(Cn2ccc3c(Nc4ccccc4)ccc(C(=O)NCc4ccc(C(=O)O)cc4)c32)c1` [Example 155, 4-((1-(3-methoxybenzyl)-4-(phenylamino)-1H-indole-7-carboxamido)methyl)benzoic acid] yielded an IC50 of less than 0.1 µM.
Compound `O=C(O)c1ccc(CNC(=O)c2cc(-c3cc(F)cc(F)c3)cc3cnn(Cc4ccc5ccccc5c4)c23)cc1` [Example 157, 4-((5-(3,5-difluorophenyl)-1-(naphthalen-2-ylmethyl)-1H-indazole-7-carboxamido)methyl)benzoic acid] returned an IC50 of less than 0.1 µM.
With `COc1cccc(Cn2ccc3c(Nc4ccccc4)ccc(C(=O)N[C@@H](C)c4ccc(C(=O)O)cc4)c32)c1` [Example 158, (S)-4-(1-(1-(3-methoxybenzyl)-4-(phenylamino)-1H-indole-7-carboxamido)ethyl)benzoic acid], the IC50 is less than 0.1 µM.
In the case of `O=C(O)c1ccc(CNC(=O)c2cc(-c3ccccc3)cc3ccn(Cc4ccc5ccccc5c4)c23)cc1` [Example 159, 4-((1-(naphthalen-2-ylmethyl)-5-phenyl-1H-indole-7-carboxamido)methyl)benzoic acid] it was less than 0.1 µM; in that of `O=C(O)c1ccc(CNC(=O)c2cc(-c3ccc(F)cc3)cc3ccn(Cc4ccc5ccccc5c4)c23)cc1` [Example 160, 4-((5-(4-fluorophenyl)-1-(naphthalen-2-ylmethyl)-1H-indole-7-carboxamido)methyl)benzoic acid], less than 0.1 µM; in that of `O=C(O)c1ccc(CNC(=O)c2cc(-c3cc(F)cc(F)c3)cc3ccn(Cc4ccc5ccccc5c4)c23)cc1` [Example 161, 4-((5-(3,5-difluorophenyl)-1-(naphthalen-2-ylmethyl)-1H-indole-7-carboxamido)methyl)benzoic acid], less than 0.1 µM.
`C[C@H](NC(=O)c1cc(-c2ccccc2)cc2ccn(Cc3ccc4ccccc4c3)c12)c1ccc(C(=O)O)cc1` [Example 162, (S)-4-(1-(1-(naphthalen-2-ylmethyl)-5-phenyl-1H-indole-7-carboxamido)ethyl)benzoic acid] had an IC50 of less than 0.1 µM.
The compound `C[C@H](NC(=O)c1cc(-c2ccc(F)cc2)cc2ccn(Cc3ccc4ccccc4c3)c12)c1ccc(C(=O)O)cc1` [Example 163, (S)-4-(1-(5-(4-fluorophenyl)-1-(naphthalen-2-ylmethyl)-1H-indole-7-carboxamido)ethyl)benzoic acid] registered an IC50 of less than 0.1 µM.
`C[C@H](NC(=O)c1cc(-c2cc(F)cc(F)c2)cc2ccn(Cc3ccc4ccccc4c3)c12)c1ccc(C(=O)O)cc1` [Example 164, (S)-4-(1-(5-(3,5-difluorophenyl)-1-(naphthalen-2-ylmethyl)-1H-indole-7-carboxamido)ethyl)benzoic acid] gave an IC50 of less than 0.1 µM.
Compound `C[C@H](NC(=O)c1cc(-c2ccccc2)cc2cnn(Cc3ccc4ccccc4c3)c12)c1ccc(C(=O)O)cc1` [Example 167, (S)-4-(1-(1-(naphthalen-2-ylmethyl)-5-phenyl-1H-indazole-7-carboxamido)ethyl)benzoic acid] returned an IC50 of less than 0.1 µM.
On to `C[C@H](NC(=O)c1cc(-c2ccccc2)cc2cnn(Cc3cccc(Cl)c3)c12)c1ccc(C(=O)O)cc1` [Example 170, (S)-4-(1-(1-(3-chlorobenzyl)-5-phenyl-1H-indazole-7-carboxamido)ethyl)benzoic acid], for which the IC50 is less than 0.1 µM.
In turn, `O=C(O)c1ccc(CNC(=O)c2cc(-c3ccccc3)cc3ncn(Cc4ccc(C(F)(F)F)cc4)c23)cc1` [Example 171, 4-((5-phenyl-1-(4-(trifluoromethyl)benzyl)-1H-benzo[d]imidazole-7-carboxamido)-methyl)benzoic acid] came in with an IC50 of less than 0.1 µM.
`O=C(O)c1ccc(CNC(=O)c2cc(-c3ccc(F)cc3)cc3ncn(Cc4ccc(C(F)(F)F)cc4)c23)cc1` [Example 172, 4-((5-(4-fluorophenyl)-1-(4-(trifluoromethyl)benzyl)-1H-benzo[d]imidazole-7-carboxamido)methyl)benzoic acid] registered an IC50 of less than 0.1 µM.
Turning to `O=C(O)c1ccc(CNC(=O)c2cc(-c3cc(F)cc(F)c3)cc3ncn(Cc4ccc(C(F)(F)F)cc4)c23)cc1` [Example 173, 4-((5-(3,5-difluorophenyl)-1-(4-(trifluoromethyl)benzyl)-1H-benzo[d]imidazole-7-carboxamido)methyl)benzoic acid], the IC50 is less than 0.1 µM.
`O=C(O)c1ccc(CNC(=O)c2cc(-c3ccccc3)cc3nnn(Cc4ccc(C(F)(F)F)cc4)c23)cc1` [Example 174, ((5-phenyl-1-(4-(trifluoromethyl)benzyl)-1H-benzo[d][1,2,3]triazole-7-carboxamido)methyl)benzoic acid] returned an IC50 of less than 0.1 µM.
In the case of `O=C(O)c1ccc(CNC(=O)c2cc(-c3ccccc3)cc3ccn(Cc4cccc5ccccc45)c23)cc1` [Example 177, 44-((1-(naphthalen-1-ylmethyl)-5-phenyl-1H-indole-7-carboxamido)methyl)benzoic acid], the IC50 was less than 0.1 µM.
With `C[C@H](NC(=O)c1cc(-c2ccccc2)cc2nnn(Cc3ccc(C(F)(F)F)cc3)c12)c1ccc(C(=O)O)cc1` [Example 179, (S)-4-(1-(5-phenyl-1-(4-(trifluoromethyl)benzyl)-1H-benzo[d][1,2,3]triazole-7-carboxamido)ethyl)benzoic acid], the IC50 was less than 0.1 µM.
As to `C[C@H](NC(=O)c1cc(-c2cc(F)cc(F)c2)cc2nnn(Cc3ccc(C(F)(F)F)cc3)c12)c1ccc(C(=O)O)cc1` [Example 181, (S)-4-(1-(5-(3,5-difluorophenyl)-1-(4-(trifluoromethyl)benzyl)-1H-benzo[d][1,2,3]triazole-7-carboxamido)ethyl)benzoic acid], the IC50 is not below 1 µM.
For the compound `O=C(O)c1ccc(CNC(=O)c2ccc(Nc3ccc(F)cc3)c3cnn(Cc4ccc5ccccc5c4)c23)cc1` [Example 182, 4-((4-((4-fluorophenyl)amino)-1-(naphthalen-2-ylmethyl)-1H-indazole-7-carboxamido)methyl)benzoic acid], the IC50 is not below 1 µM.
Turning to `O=C(O)c1ccc(CNC(=O)c2ccc(Nc3ccc(F)cc3)c3ccn(Cc4ccc5ccccc5c4)c23)cc1` [Example 183, ((4-((4-fluorophenyl)amino)-1-(naphthalen-2-ylmethyl)-1H-indole-7-carboxamido)methyl)benzoic acid], the IC50 was less than 0.1 µM.
In the case of `O=C(O)c1ccc(CNC(=O)c2cc(-c3ccc(F)cc3)cc3cnn(Cc4ccc(-c5ccc(F)cc5)cc4)c23)cc1` [Example 185, 4-((1-((4′-fluoro-[1,1′-biphenyl]-4-yl)methyl)-5-(4-fluorophenyl)-1H-indazole-7-carboxamido)methyl)benzoic acid] it was less than 0.1 µM.
`O=C(O)c1ccc(CNC(=O)c2cc(-c3cc(F)cc(F)c3)cc3cnn(Cc4ccc(-c5ccc(F)cc5)cc4)c23)cc1` [Example 186, 4-((5-(3,5-difluorophenyl)-1-((4′-fluoro-[1,1′-biphenyl]-4-yl)methyl)-1H-indazole-7-carboxamido)methyl)benzoic acid]: the IC50 is less than 0.1 µM.
As for `O=C(O)c1ccc(CNC(=O)c2cc(-c3ccc(F)c(F)c3)cc3cnn(Cc4ccc(-c5ccc(F)cc5)cc4)c23)cc1` [Example 187, 4-((5-(3,4-difluorophenyl)-1-((4′-fluoro-[1,1′-biphenyl]-4-yl)methyl)-1H-indazole-7-carboxamido)methyl)benzoic acid], the IC50 was less than 0.1 µM.
The result for `O=C(O)c1ccc(CNC(=O)c2cc(-c3cc(F)cc(F)c3)cc3cnn(Cc4ccc(-c5ccccc5)cc4)c23)cc1` [Example 192, 4-((1-([1,1′-biphenyl]-4-ylmethyl)-5-(3,5-difluorophenyl)-1H-indazole-7-carboxamido)methyl)benzoic acid] reads less than 0.1 µM.
In the case of `O=C(O)c1ccc(CNC(=O)c2cc(-c3ccc(F)c(F)c3)cc3cnn(Cc4ccc(-c5ccccc5)cc4)c23)cc1` [Example 193, 4-((1-([1,1′-biphenyl]-4-ylmethyl)-5-(3,4-difluorophenyl)-1H-indazole-7-carboxamido)methyl)benzoic acid] it was less than 0.1 µM; in that of `C[C@H](NC(=O)c1cc(-c2ccc(F)cc2)cc2cnn(Cc3ccc(C(F)(F)F)cc3)c12)c1ccc(C(=O)O)cc1` [Example 194, (S)-4-(1-(5-(4-fluorophenyl)-1-(4-(trifluoromethyl)benzyl)-1H-indazole-7-carboxamido)ethyl)benzoic acid], less than 0.1 µM; in that of `C[C@H](NC(=O)c1cc(-c2ccc(F)c(F)c2)cc2cnn(Cc3ccc(C(F)(F)F)cc3)c12)c1ccc(C(=O)O)cc1` [Example 195, (S)-4-(1-(5-(3,4-difluorophenyl)-1-(4-(trifluoromethyl)benzyl)-1H-indazole-7-carboxamido)ethyl)benzoic acid], less than 0.1 µM.
The compound `C[C@H](NC(=O)c1cc(-c2ccccc2)cc2cnn([C@H](C)c3ccc4ccccc4c3)c12)c1ccc(C(=O)O)cc1` [Example 196, 4-((S)-1-(1-((R)-1-(naphthalen-2-yl)ethyl)-5-phenyl-1H-indazole-7-carboxamido)ethyl)benzoic acid] gave an IC50 of less than 0.1 µM.
For the compound `C[C@H](NC(=O)c1cc(-c2ccccc2)cc2cnn([C@@H](C)c3ccc4ccccc4c3)c12)c1ccc(C(=O)O)cc1` [Example 197, 4-((S)-1-(1-((S)-1-(naphthalen-2-yl)ethyl)-5-phenyl-1H-indazole-7-carboxamido)ethyl)benzoic acid], the IC50 lay within 0.1 to 1 µM.
Consider `C[C@H](NC(=O)c1cc(-c2ccccc2)cc2cnn(Cc3ccc(-c4ccccc4)cc3)c12)c1ccc(C(=O)O)cc1` [Example 198, (S)-4-(1-(1-([1,1′-biphenyl]-4-ylmethyl)-5-phenyl-1H-indazole-7-carboxamido)ethyl)benzoic acid], for which the IC50 is less than 0.1 µM.
In turn, `C[C@H](NC(=O)c1cc(-c2ccc(F)cc2)cc2cnn(Cc3ccc(-c4ccccc4)cc3)c12)c1ccc(C(=O)O)cc1` [Example 199, (S)-4-(1-(1-([1,1′-biphenyl]-4-ylmethyl)-5-(4-fluorophenyl)-1H-indazole-7-carboxamido)ethyl)benzoic acid] had an IC50 of less than 0.1 µM.
